The text below walks through data of publication PMC5062470, “The mGluR2 positive allosteric modulator, SAR218645, improves memory and attention deficits in translational models of cognitive symptoms associated with schizophrenia” (Scientific Reports, 2016).

The test system of experiment [1] is NMDA Nr1neo−/− mice. The experiment can be described thus: Y-maze test. Format: in vivo. How it is done: The apparatus consisted of 3 arms in gray PVC in the shape of a Y. Arms were 28 cm long, 6 cm wide with walls 15 cm high. Movement was tracked manually using in-house software by an experimenter located in an adjacent room via a camera mounted directly above the maze. The animal was placed in an arm facing the center (Arm A) for 5 min. A correct alternation occurred when the animal moved to the other 2 arms without retracing its steps (i.e. Arm A to B to C). Movements such as ABA were incorrect. Based on the movement over the entire session, the percentage of correct alternations was calculated [i.e., (Total number of alternations × 100)/(Total number of arm entries-2)]. SAR218645 was administered po at 0.1 mg/kg 60 min prior to testing to either wild-type or NMDA Nr1^neo−/− mice. No dose-response effect was investigated due to the limited number of transgenic animals available. Statistics performed on total arm entries and percentage alternation consisted of using a two-way ANOVA, followed by a post-hoc Winer test for individual comparisons. Student’s t-test was used to compare the performance of each group with the chance level. Ten to eleven animals per group were used.

For experiment [2], the system named is Swiss mice. Nature of the experiment: MK-801-induced locomotor hyperactivity. In kind it is in vivo. How it is done:
An actimeter device consisting of a cylinder (20 cm diameter, 9.5 cm height, Apelex, France) equipped with two perpendicular light beams located 1.5 cm above the floor was used. Mice from the transgenic batches (DAT^−/− and NMDA Nr1^neo−/−) were orally pretreated with either SAR218645 or vehicle and individually isolated in boxes for a period of 60 min. Animals were then placed in the actimeter device and locomotor activity (number of interrupted light beams) was recorded for a period of 30 or 60 min. Mice in which the expression of the dopamine transporter (DAT) was knocked out (i.e., the DAT^−/− mouse) have been proposed as a reliable model of the positive symptoms of schizophrenia. In these mice, dopamine levels in the synapse are dramatically elevated and these animals are hyperactive and agitated in behavioral tests. […] Immediately following amphetamine challenge, 30 min after MK-801 challenge, mice were placed in the actimeter devices and locomotor activity was recorded for a period of 30 (DAT^−/−) or 60 (NMDA Nr1^neo−/−) min.
Statistical analyses were performed using SAS V8.2 software (SAS Institute, Cary, NC, USA). The number of light beam breaks (motility count) recorded for 30 or 60 min were analyzed using one-way ANOVAs using a fixed factor of challenge or genotype and complementary post hoc (Newman-Keuls) tests were performed. […]

The target in experiment [3] is T1, native mouse mGluR2 (Mus musculus, UniProt Q14BI2).
T1 construct: SAR218645 acted as a pure mGluR2 PAM at native mouse mGluR2 in the cortex; from tissue; host or cells: mouse cortex membranes
T1 sequence (Q14BI2 19-872): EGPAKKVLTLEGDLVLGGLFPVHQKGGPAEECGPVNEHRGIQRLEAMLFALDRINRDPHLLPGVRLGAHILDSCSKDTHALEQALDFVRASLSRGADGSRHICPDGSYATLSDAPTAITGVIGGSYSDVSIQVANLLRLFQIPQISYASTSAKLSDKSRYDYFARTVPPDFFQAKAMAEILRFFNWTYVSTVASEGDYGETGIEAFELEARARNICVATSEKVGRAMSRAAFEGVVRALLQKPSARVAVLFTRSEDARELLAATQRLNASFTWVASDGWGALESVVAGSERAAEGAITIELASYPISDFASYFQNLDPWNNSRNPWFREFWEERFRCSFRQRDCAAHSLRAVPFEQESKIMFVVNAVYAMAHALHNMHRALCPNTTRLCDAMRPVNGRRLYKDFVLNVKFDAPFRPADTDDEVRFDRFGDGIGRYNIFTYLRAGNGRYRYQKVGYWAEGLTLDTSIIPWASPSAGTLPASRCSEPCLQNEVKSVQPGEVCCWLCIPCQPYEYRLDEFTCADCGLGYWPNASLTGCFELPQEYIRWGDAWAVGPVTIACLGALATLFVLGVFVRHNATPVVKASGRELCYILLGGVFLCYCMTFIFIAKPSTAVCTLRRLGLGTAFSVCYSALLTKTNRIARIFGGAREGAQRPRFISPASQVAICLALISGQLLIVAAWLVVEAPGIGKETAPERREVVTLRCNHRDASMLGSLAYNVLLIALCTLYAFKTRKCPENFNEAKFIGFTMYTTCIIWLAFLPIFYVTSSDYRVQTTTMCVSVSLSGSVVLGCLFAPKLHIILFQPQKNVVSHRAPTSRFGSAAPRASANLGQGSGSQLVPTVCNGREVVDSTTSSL
Nature of the experiment: [35S]GTPγS binding to mouse cortex. The following applies: absence of glutamate. In kind it is biochemical. Here is the method:
The assay was performed in 96-well filtration plates in 250 μl total volume. […] For termination of the reaction, the plate was filtered and dried prior to adding 50 μl Microscint 40, and counted on the 1450 TopCount Microbeta Counter. EC50 were calculated using 4-parameter curve fitting.

The target in experiment [4] is human mGluR2 (Homo sapiens, UniProt Q14416). Nature of the experiment: Ca2+ mobilization assay, HEK293 cells expressing human mGluR2/Gα16. Format: cell-based. Set-up: expressed in transfected cells; host or cells: HEK293 Flp-in-T-REx (inducible), co-expressing Gα16. (Calcium assays in cells follow changes in intracellular calcium, usually with a dye or a luminescent sensor.)
human mGluR2, sequence (Q14416 19-872): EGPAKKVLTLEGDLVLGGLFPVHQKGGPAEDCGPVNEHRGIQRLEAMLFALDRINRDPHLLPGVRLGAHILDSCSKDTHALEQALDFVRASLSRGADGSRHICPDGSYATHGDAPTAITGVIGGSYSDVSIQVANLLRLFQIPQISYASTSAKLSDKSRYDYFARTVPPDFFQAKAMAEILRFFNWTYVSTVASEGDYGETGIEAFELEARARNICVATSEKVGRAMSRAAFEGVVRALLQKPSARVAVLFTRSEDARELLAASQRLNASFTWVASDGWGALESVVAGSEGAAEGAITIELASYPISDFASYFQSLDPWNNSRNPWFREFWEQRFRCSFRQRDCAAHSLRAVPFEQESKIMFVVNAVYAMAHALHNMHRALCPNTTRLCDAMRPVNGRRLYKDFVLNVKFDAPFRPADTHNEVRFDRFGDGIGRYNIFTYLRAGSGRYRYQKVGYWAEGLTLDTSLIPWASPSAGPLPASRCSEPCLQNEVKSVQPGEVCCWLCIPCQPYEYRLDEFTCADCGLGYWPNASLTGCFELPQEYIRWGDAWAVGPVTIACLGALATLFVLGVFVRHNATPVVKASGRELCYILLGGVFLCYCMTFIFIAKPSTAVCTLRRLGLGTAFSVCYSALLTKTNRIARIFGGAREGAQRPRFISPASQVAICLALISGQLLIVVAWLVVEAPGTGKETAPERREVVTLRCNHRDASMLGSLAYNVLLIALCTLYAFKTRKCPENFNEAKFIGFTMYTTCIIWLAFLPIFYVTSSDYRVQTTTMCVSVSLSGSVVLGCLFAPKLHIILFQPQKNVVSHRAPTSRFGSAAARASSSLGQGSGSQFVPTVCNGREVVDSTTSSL

For `CC1(C)CCc2cc(OC[C@@H]3Cn4ccc(=O)nc4O3)ccc21` [SAR218645, (S)-2-(1,1-dimethyl-indan-5-yloxymethyl)-2,3-dihydro-oxazolo[3,2-a]pyrimidin-7-one], in experiment [1] (0.1 mg/kg po, P < 0.05), the “spontaneous alternations versus saline-treated transgenic animals” value was “significantly more spontaneous alternations”. Moreover, the Minimal active dose is on record as 0.1 mg/kg in experiment [1] (0.1, po) and more than 10 mg/kg in experiment [2] (dose-range 0.1–10, po, Swiss mice). For the same molecule, the “effect on locomotor activity” value in experiment [2] (MK-801 0.2 mg/kg ip, SAR218645 po) is “no effects”. Also, in experiment [3], the intrinsic activity entry was “did not have any intrinsic activity”. Further, in experiment [4], the “maximal potentiation of the glutamate response” value is listed as “approximately 10 fold”.
